Source: paper PMC10729961, “Putative purine nucleoside interacting residues in the malaria parasite purine uptake transporter PfENT1 are critical for transporter function” (PLOS ONE, 2023)

Tests used:
Type in all cases: cell-based
[1] = system: yeast expressing F286C PfENT1; experiment: 24-h adenosine-dependent growth assay
Method: (§1) The Bioscreen C (Model #: 61400PRO) machine was used to measure proliferation of yeast expressing either wild type or mutant PfENT1 in 24-h assays. Yeast strains were grown overnight in SDM media plus 1 mM adenine. Yeast were spun down and resuspended in sterile water. Yeast were added into wells of honeycomb plates specific for the Bioscreen C (Fisher Scientific Cat No. #NC9976780) to achieve a final OD600 of 0.05 in the total volume of 150 μl per well of yeast and media. […] Each trial contained technical triplicates of every sample. The honeycomb plates were placed in the Bioscreen C where they were shaken continuously on high for 24-h at 30°C. OD600 was measured every 15 min.
(§2) For calculating the doubling time, the formula used was: Dt=ln(2)/kwherek=thegrowthrate
(§3) The k was calculated in Excel using the OD600 values in the growth curve that represented exponential growth (OD600 between 0.2 and 0.6). Alternatively, this formula can also be used: Dt=ln(2)/([ln(OD2)−ln(OD1)]/t2−t1)

[2] = system: yeast expressing I137C PfENT1; experiment: 24-h adenosine-dependent growth assay; conditions: mean±SEM
Method: as §1, §2, §3

[3] = system: yeast expressing L289C PfENT1; experiment: 24-h adenosine-dependent growth assay; conditions: mean±SEM
Method: as §1, §2, §3

[4] = system: yeast expressing V52C PfENT1; experiment: 24-h adenosine-dependent growth assay; conditions: mean±SEM
Method: as §1, §2, §3

[5] = system: yeast expressing L50C PfENT1; experiment: 24-h adenosine-dependent growth assay; conditions: for Avg. Doubling time (h) Adenosine growth assay 1 mM: 1 mM adenosine sole purine source; for Avg. Doubling time (h) Adenosine growth assay 1 mM / Avg. Doubling time (h) Adenosine growth assay 2 mM: 24 h, mean±SEM; for Avg. Doubling time (h) Adenosine growth assay 2 mM: 2 mM adenosine sole purine source
Method: as §1, §2, §3

[6] = system: yeast expressing S48C PfENT1; experiment: 24-h adenosine-dependent growth assay; conditions: mean±SEM
Method: as §1, §2, §3

[7] = system: yeast expressing WT PfENT1; experiment: 24-h adenosine-dependent growth assay; conditions: mean±SEM; for Avg. Doubling time (h) Adenosine growth assay 1 mM: 1 mM adenosine sole purine source; for Avg. Doubling time (h) Adenosine growth assay 2 mM: 2 mM adenosine sole purine source
Method: as §1, §2, §3

[8] = system: yeast expressing A134C PfENT1; experiment: 24-h adenosine-dependent growth assay; conditions: mean±SEM
Method: as §1, §2, §3

[9] = system: yeast expressing F288C PfENT1; experiment: 24-h adenosine-dependent growth assay; conditions: mean±SEM
Method: as §1, §2, §3

[10] = system: yeast expressing N51C PfENT1; experiment: 24-h adenosine-dependent growth assay; conditions: mean±SEM
Method: as §1, §2, §3

[11] = system: yeast expressing T136C PfENT1; experiment: 24-h adenosine-dependent growth assay; conditions: mean±SEM
Method: as §1, §2, §3

[12] = system: yeast expressing S49C PfENT1; experiment: 24-h adenosine-dependent growth assay; conditions: mean±SEM
Method: as §1, §2, §3

[13] = system: yeast expressing R291C PfENT1; experiment: 24-h adenosine-dependent growth assay; parameters: key: Mutant strains that did not grow are indicated by (ng, no growth)
Method: as §1, §2, §3

[14] = system: yeast expressing W53C PfENT1; experiment: 24-h adenosine-dependent growth assay; parameters: key: Mutant strains that did not grow are indicated by (ng, no growth)
Method: as §1, §2, §3

[15] = system: yeast expressing Q135C PfENT1; experiment: 24-h adenosine-dependent growth assay; parameters: key: Mutant strains that did not grow are indicated by (ng, no growth)
Method: as §1, §2, §3

[16] = system: yeast expressing S290C PfENT1; experiment: 24-h adenosine-dependent growth assay; parameters: key: Mutant strains that did not grow are indicated by (ng, no growth)
Method: as §1, §2, §3

[17] = system: yeast expressing D287C PfENT1; experiment: 24-h adenosine-dependent growth assay; parameters: key: Mutant strains that did not grow are indicated by (ng, no growth)
Method: as §1, §2, §3

[18] = system: purine auxotrophic yeast (ade2Δ, fui1Δ); experiment: 24-h adenosine-dependent growth assay; parameters: key: Mutant strains that did not grow are indicated by (ng, no growth); conditions: ade2Δ strain
Method: as §1, §2, §3

[19] = system: purine auxotrophic yeast (ade2Δ, fui1Δ); experiment: [3H]uridine uptake assay, competition with cold adenosine; conditions: ade2Δ strain; cold adenosine vs [3H]uridine uptake, 15 min
Method: The radiolabeled uptake assay measures the ability of an unlabeled purine or pyrimidine substrate to inhibit the uptake of radiolabeled substrate into yeast via PfENT1 as previously described. Yeast strains containing PfENT1 (mutant or WT) were grown overnight in SDM media to a final OD600 between 0.2 and 0.5. Purine auxotrophic yeast used as a negative control were grown in YPD media. Yeast were spun down and washed three times with 15 mL phosphate buffered saline (PBS; 137 mM NaCl, 2.7 mM KCl, 10 mM KH2PO4, 10 mM Na2HPO4, pH 7.4). The final volume of yeast in PBS varied but it was diluted to a final OD600 = 0.2. […] For determination of minimal and maximal uptake, yeast strains were incubated without radioactivity or with radioactivity but no cold substrate competition, respectively. […] The amount of radioactivity in each well was measured by liquid scintillation counting using a 1450 MicroBeta TriLux (Perkin Elmer). The counts per minute (cpm) were recorded and technical triplicates were averaged. IC50 values were calculated, and statistical analysis was performed using GraphPad/Prism9 software. […]
Statistical significance was calculated using one-way analysis of variance (ANOVA) with GraphPad/Prism9 software. IC50 values were calculated using the non-linear regression dose-response inhibition log(inhibitor) vs normalized response program. […]

[20] = 1 mM adenosine sole purine source
[21] = 2 mM adenosine sole purine source

For `Nc1ncnc2c1ncn2[C@@H]1O[C@H](CO)[C@@H](O)[C@H]1O` [Adenosine, adenosine], the “Avg. Doubling time (h) Adenosine growth assay 1 mM” value [1, 20] was “slow growth”, the “Avg. Doubling time (h) Adenosine growth assay 2 mM” value [1, 21] was “slow growth” and the “Avg. Doubling time (h) Adenosine growth assay 1 mM” value [2, 20] was 3.99 ± 0.50 h. For the same compound, the “Avg. Doubling time (h) Adenosine growth assay 2 mM” value [2, 21] was 3.5 ± 0.16 h, the “Avg. Doubling time (h) Adenosine growth assay 1 mM” value [3, 20] was 3.08 ± 0.25 h and the “Avg. Doubling time (h) Adenosine growth assay 2 mM” value [3, 21] was 3.12 ± 0.33 h. The “Avg. Doubling time (h) Adenosine growth assay 1 mM” value [4, 20] was 4.20 ± 0.23 h, the “Avg. Doubling time (h) Adenosine growth assay 2 mM” value [4, 21] was 3.78 ± 0.29 h and the “Avg. Doubling time (h) Adenosine growth assay 1 mM” value [5] was 5.83 ± 0.47 h. The “Avg. Doubling time (h) Adenosine growth assay 1 mM” value ([5]; listed as adenosine) was 5.8 h, the “Avg. Doubling time (h) Adenosine growth assay 2 mM” value [5] was 7.16 ± 1.21 h and the “Avg. Doubling time (h) Adenosine growth assay 2 mM” value ([5]; listed as adenosine) was 7.2 h. The “increase of doubling time compared to WT PfENT1 control” value ([5]; in both 1 mM and 2 mM adenosine) was 1.9 fold, the “Avg. Doubling time (h) Adenosine growth assay 1 mM” value [6, 20] was 3.77 ± 0.17 h and the “Avg. Doubling time (h) Adenosine growth assay 2 mM” value [6, 21] was 3.68 ± 0.42 h. The “Avg. Doubling time (h) Adenosine growth assay 1 mM” value [7] was 3.13 ± 0.36 h, the “Avg. Doubling time (h) Adenosine growth assay 1 mM” value ([7]; listed as adenosine) was 3.1 h and the “Avg. Doubling time (h) Adenosine growth assay 2 mM” value [7] was 3.72 ± 0.21 h. For the same compound, the “Avg. Doubling time (h) Adenosine growth assay 2 mM” value ([7]; listed as adenosine) was 3.7 h, the “Avg. Doubling time (h) Adenosine growth assay 1 mM” value [8, 20] was 4.42 ± 0.25 h and the “Avg. Doubling time (h) Adenosine growth assay 2 mM” value [8, 21] was 4.09 ± 0.24 h. The “Avg. Doubling time (h) Adenosine growth assay 1 mM” value [9, 20] was 3.61 ± 0.60 h, the “Avg. Doubling time (h) Adenosine growth assay 2 mM” value [9, 21] was 3.57 ± 0.53 h and the “Avg. Doubling time (h) Adenosine growth assay 1 mM” value [10, 20] was 3.46 ± 0.26 h. For the same compound, the “Avg. Doubling time (h) Adenosine growth assay 2 mM” value [10, 21] was 3.89 ± 0.41 h, the “Avg. Doubling time (h) Adenosine growth assay 1 mM” value [11, 20] was 3.12 ± 0.27 h and the “Avg. Doubling time (h) Adenosine growth assay 2 mM” value [11, 21] was 3.06 ± 0.09 h. The “Avg. Doubling time (h) Adenosine growth assay 1 mM” value [12, 20] was 3.06 ± 0.28 h, the “Avg. Doubling time (h) Adenosine growth assay 2 mM” value [12, 21] was 2.99 ± 0.16 h and the “Avg. Doubling time (h) Adenosine growth assay 1 mM” value [13, 20] was “ng”. For the same compound, the “Avg. Doubling time (h) Adenosine growth assay 2 mM” value [13, 21] was “ng”, the “Avg. Doubling time (h) Adenosine growth assay 1 mM” value [14, 20] was “ng” and the “Avg. Doubling time (h) Adenosine growth assay 2 mM” value [14, 21] was “ng”. For the same compound, the “Avg. Doubling time (h) Adenosine growth assay 1 mM” value [15, 20] was “ng”, the “Avg. Doubling time (h) Adenosine growth assay 2 mM” value [15, 21] was “ng” and the “Avg. Doubling time (h) Adenosine growth assay 1 mM” value [16, 20] was “ng”. For the same compound, the “Avg. Doubling time (h) Adenosine growth assay 2 mM” value [16, 21] was “ng”, the “Avg. Doubling time (h) Adenosine growth assay 1 mM” value [17, 20] was “ng” and the “Avg. Doubling time (h) Adenosine growth assay 2 mM” value [17, 21] was “ng”. The “Avg. Doubling time (h) Adenosine growth assay 1 mM” value ([18]; 1 mM adenosine sole purine source, mean±SEM) was “ng”, the “Avg. Doubling time (h) Adenosine growth assay 2 mM” value [18, 21] was “ng” and the “Average IC50 (μM) Adenosine” value [19] was “no uptake”.
